The values below come from article PMC5346982, “Antimalarial Properties of Simplified Kalihinol Analogues” (ACS Medicinal Chemistry Letters, 2017).

The test system of series [1] is FCR-3 Plasmodium falciparum. The arrangement: method as in doi:10.1016/S0040-4020(98)00818-7. Conditions: chloroquine-resistant FCR-3 strain; cited from earlier work.
Another series has as its system P. falciparum W2. As to conditions: drug-resistant W2 strain; Figure 1; cited from earlier work.
Series [2] deals with P. falciparum Dd2. Put plainly: SYBR Green based parasite proliferation assay, chloroquine-resistant Dd2 strain. The format is cell-based, Plasmodium falciparum.
A further series has as its system P. falciparum 3D7. Put plainly: SYBR Green based parasite proliferation assay, drug-sensitive 3D7 strain. It is filed as cell-based, Plasmodium falciparum.
Another series concerns P. falciparum HB3. As to conditions: Wood group, cited from earlier work.
Series [3] deals with P. falciparum Dd2. Conditions: Wood group, cited from earlier work.
Series [4] can be described thus: Microsomal stability assay, human liver microsomes. Conditions: pH 7.4. It is filed as in vitro ADME. The protocol:
Reference compound Ketanserin
Sample size Duplicates (n=2)
Bioanalytical method LC-MS/MS
Microsomal Liver Weight per Hepatic
Species Protein Kilogram of Body Scaling Factora Blood Flow
per Gram of Liver Weight (mL/min/kg)
Test Article Species Percent Remaining (%) T1/2 Clint
1. Historic data of ketanserin:
Detection method UPLC-MS/MS-29(API6500+)
Internal standard (s) Osalmid, imipramine
MS conditions Positive ion, ESI
Mobile phase A: 0.025%FA/1mM NH4OAc/H2O
2. Reference compouds(Ketanserin) and test compounds spiking solution: […]

A short description of another series: in vitro. Conditions: mouse, microsomes, pH 7.4.
The conditions of series [5]: microsomes; cited from earlier work.
The conditions of series [6]: microsomes; cited from earlier work. This is another data set of the same source.
Where [7] appears, read: drug-resistant Dd2 strain, 72 h incubation, n = 3, read-out: IC50.
Setting [8] is: drug-sensitive 3D7 strain, 72 h incubation, n = 3, read-out: IC50.

Several values for one entry are separate records, joined by “and”; a condition that tells them apart may be missing. Equal values may be shown once. Read-outs that look alike come from different tables or passages of the source.

By IC50 is commonly meant the concentration at which inhibition is half-maximal. Turning to 6-hydroxy-kalihinene [compound 3], the IC50 in [1] is 80 nM.
With 7,20-diisocyanoadociane [compound 4], the IC50 in the series on P. falciparum W2 is 13 nM.
Consider 10-isocyano-4-cadinene [(±)-15], for which the half-inhibitory concentration (IC50) in the series with P. falciparum Dd2 [2] (Dd2 strain) was 0.057 µg/mL; in the series with P. falciparum Dd2 [2] (setting [7]) it was 0.247 µM; in the series with P. falciparum 3D7 (3D7 strain), 0.1631 µg/mL; in the series with P. falciparum 3D7 (setting [8]), 0.705 µM; in the series on P. falciparum HB3 (HB3 (chloroquine-sensitive)), 2200 nM; in the series with P. falciparum Dd2 [3] (Dd2 (chloroquine-resistant)), 2200 nM.
On to `[C-]#[N+]C1C2C(C(C)C)CCC(C)([N+]#[C-])C2CCC1(C)O` (racemic) [(±)-22], for which the IC50 in the series on P. falciparum HB3 (HB3) and in the series on P. falciparum Dd2 [3] (Dd2) was 80 nM each time.
For the compound `CCN(CC)CCCC(C)Nc1ccnc2cc(Cl)ccc12` (stereo not shown) [Chloroquine], the half-maximal inhibitory concentration (IC50) in the series on P. falciparum Dd2 [2] (Plasmodium falciparum, DD2, read-out: Chloroquine IC50 [µM], Dd2 strain, antimalarial standard run alongside each compound) is 0.0275 µM; in the series with P. falciparum Dd2 [2] (read-out: Chloroquine IC50, Dd2 strain, antimalarial standard run alongside each compound), 0.0322 µM and 0.0337 µM and 0.0497 µM and 0.0521 µM; in the series on P. falciparum 3D7 (Plasmodium falciparum, 3D7, read-out: Chloroquine IC50 [µM], 3D7 strain, antimalarial standard run alongside each compound), 0.0063 µM; in the series on P. falciparum 3D7 (read-out: Chloroquine IC50, 3D7 strain, antimalarial standard run alongside each compound) it was 0.0052 µM and 0.0066 µM and 0.0059 µM and 0.0091 µM and 0.0089 µM and 0.0058 µM and 0.0061 µM.
In general, CLint scaled refers to the capacity of the preparation to metabolise the compound, expressed as a volume cleared per time. A lower CLint scaled goes with greater metabolic stability. As a reminder, the fraction remaining is the share of the starting amount still present when the sample was taken. As a reminder, the half-life is the time needed for the level to fall by half in the phase considered. Take `O=C(c1ccc(F)cc1)C1CCN(CCn2c(=O)[nH]c3ccccc3c2=O)CC1` [ketanserin]: in [4] (human, microsomes), the intrinsic metabolic clearance (CLint scaled) at 1 µM is 40 mL/min/kg; the amount remaining at 5 min, 1 µM is 88.4%; the amount remaining at 0.25 h, 1 µM was found to be 77%; the fraction remaining at 0.5 h, 1 µM amounted to 62.5%. The same compound showed a share remaining at 0.75 h, 1 µM in series [4] (human, microsomes) of 47.3%. This compound returned a half-life at 1 µM in series [4] (human liver microsomes 0.5 mg/mL, 1 µM, 37°C) of 43.4 min. Further, in the series “in vitro”, the CLint scaled at 1 µM came to 267 mL/min/kg; the half-life at 1 µM was 20.4 min; the share remaining at 0 h, 1 µM stood at 100%; the share remaining at 5 min, 1 µM came to 79.9%. In addition, in the series “in vitro”, the fraction remaining at 0.25 h, 1 µM worked out at 55.5%; the share remaining at 0.5 h, 1 µM worked out at 32.9%; the fraction remaining at 0.75 h, 1 µM was 21.7%. Also, the “T1/2 (Mouse), historic data” value in series [5] is given as 18.27 ± 3.89 min. For the same compound, the “T1/2 (Human), historic data” value in series [6] was 39.69 ± 6.36 min.
Regarding kalihinol A [compound 1], the IC50 in [1] was 1.2 nM.
kalihinol B [compound 2]: the concentration for half-maximal inhibition (IC50) in the series with P. falciparum Dd2 [2] (Dd2 strain) stood at 0.0018 µg/mL; in the series with P. falciparum Dd2 [2] (setting [7]), 0.0046 µM; in the series on P. falciparum 3D7 (3D7 strain), 0.0033 µg/mL; with P. falciparum 3D7 (setting [8]), 0.0084 µM.
